Assay results as given in patent US12064445B2, “Cytarabine conjugates for cancer therapy” (Biosight Ltd., priority 2015, dated 2024).
Read-outs that look alike come from different tables or passages of the source.

Tests used:
[1] = system: CCRF-CEM cells; test: Human leukemia hollow fiber model transplanted in nude mice (CCRF-CEM); type: in vivo; settings: 1.5 mg/mouse/day, 7 consecutive days
Procedure: (§1) Next, the efficacy of Astarabine® in vivo was studied on a human leukemia (Molt-4 and CCRF-CEM cells) hollow fiber model transplanted in nude mice. Astarabine® was injected at doses of 6.25 mg/mouse/day and 25 mg/mouse/day intraperitoneally (IP), daily, for 7 consecutive days; cytarabine was injected at a dose of 1.5 mg/mouse/day. Leukemia cell growth was measured using the MTT assay as described in Example 1 herein above.

[2] = system: HL-60 (Human promyelocytic leukemia); settings: Qin et al., Clin. Cancer Res. 2007, read-out: Cytarabine in literature (IC50); cited from earlier work
[3] = system: RPMI8226 (Human myeloma); test: MTT assay, IC50 in tumor cell lines; type: cell-based; settings: RPMI-8226, RPMI8226, 72 hr
Procedure: The effect of Astarabine® on different cell lines was evaluated. Briefly, various cell lines were obtained from ATCC or ECACC. Hematological cells were grown in RPMI medium containing 10-20% FBS and 1% glutamine. Solid tumor cells were grown in DMEM medium containing 10-20% FBS and 1% glutamine. Cells were seeded into 96-well plates, 50,000 cells/ml, 0.2 ml per well. […] The study was conducted in triplicates, PBS was used as control. Plates were incubated for 72 hr at 37° C., 5% CO2. At the end of the exposure period, a MTT assay using the MTT reagent [3-(4,5-dimethylthiazol-2-yl)-2,5-diphenyltetrazolium bromide] was performed. MTT was added to each well at a concentration of 5 mg/ml in a volume of 0.02 ml. Plates were incubated at 37° C. for 3 h. The plates were centrifuged at 3500 rpm for 5 minutes and the supernatant was aspired. The pellets which contained MTT crystals were each dissolved in 0.2 ml DMSO. Absorbance was determined using ELISA reader at a wavelength of 570 nm.

[4] = system: L1210 (Mouse DBA/2 lymphocytic leukemia); settings: Breistol et al., Cancer Res. 1999, read-out: Cytarabine in literature (IC50); cited from earlier work
[5] = system: Molt-4 (Human acute lymphoblastic leukemia); settings: Ogbomo et al., Neoplasia 2008, read-out: Cytarabine in literature (IC50); cited from earlier work
[6] = system: HepG2 (Human hepatocellular carcinoma); test: MTT assay, IC50 in tumor cell lines; type: cell-based; settings: HepG2, 72 hr
Procedure: (§2) The effect of Astarabine® on different cell lines was evaluated. Briefly, various cell lines were obtained from ATCC or ECACC. Hematological cells were grown in RPMI medium containing 10-20% FBS and 1% glutamine. Solid tumor cells were grown in DMEM medium containing 10-20% FBS and 1% glutamine. Cells were seeded into 96-well plates, 50,000 cells/ml, 0.2 ml per well. Test substances were diluted in saline or PBS and added in final concentrations of 0.1 nM to 10 μM, in a volume of 20 μl. The study was conducted in triplicates, PBS was used as control. Plates were incubated for 72 hr at 37° C., 5% CO2. At the end of the exposure period, a MTT assay using the MTT reagent [3-(4,5-dimethylthiazol-2-yl)-2,5-diphenyltetrazolium bromide] was performed. MTT was added to each well at a concentration of 5 mg/ml in a volume of 0.02 ml. Plates were incubated at 37° C. for 3 h. The plates were centrifuged at 3500 rpm for 5 minutes and the supernatant was aspired. The pellets which contained MTT crystals were each dissolved in 0.2 ml DMSO. Absorbance was determined using ELISA reader at a wavelength of 570 nm.

[7] = system: K562 (Human chronic myelogenous leukemia); test: MTT assay, IC50 in tumor cell lines; type: cell-based; settings: K562, 72 hr
Procedure: as §2

[8] = system: NCIH727 (Human lung non small cell carcinoma); test: MTT assay, IC50 in tumor cell lines; type: cell-based; settings: NCI-H727, NCIH727, 72 hr
Procedure: as §2

[9] = system: CCRF-SB (Human acute lymphoblastic leukemia); test: MTT assay, IC50 in tumor cell lines; type: cell-based; settings: 72 hr
Procedure: as §2

[10] = system: Molt-4 (Human acute lymphoblastic leukemia); test: MTT assay, IC50 in tumor cell lines; type: cell-based; settings: Molt-4, 72 hr
Procedure: as §2

[11] = system: SU DHL-5 (Human B-cell non Hodgkin's lymphoma); test: MTT assay, IC50 in tumor cell lines; type: cell-based; settings: SU DHL-5, 72 hr
Procedure: as §2

[12] = system: CCRF-CEM (Human acute lymphoblastic leukemia T lympoblastoid line); test: MTT assay, IC50 in tumor cell lines; type: cell-based; settings: 72 hr
Procedure: as §2

[13] = system: P388.D1 (Mouse lymphoid macrophage); test: MTT assay, IC50 in tumor cell lines; type: cell-based; settings: P388D1, P388.D1, 72 hr
Procedure: as §2

[14] = system: MEG 01 (Human chronic myelogenous leukemia); test: MTT assay, IC50 in tumor cell lines; type: cell-based; settings: MEG 01, 72 hr
Procedure: as §2

[15] = system: L1210 (Mouse DBA/2 lymphocytic leukemia); test: MTT assay, IC50 in tumor cell lines; type: cell-based; settings: L1210, 72 hr
Procedure: as §2

[16] = system: HL-60 (Human promyelocytic leukemia); test: MTT assay, IC50 in tumor cell lines; type: cell-based; settings: HL-60, 72 hr
Procedure: as §2

[17] = system: A2780 (Human ovarian carcinoma); test: MTT assay, IC50 in tumor cell lines; type: cell-based; settings: A2780, 72 hr
Procedure: as §2

[18] = system: RS 4:11 (Human acute lymphoblastic leukemia); test: MTT assay, IC50 in tumor cell lines; type: cell-based; settings: RS4-11, RS 4:11, 72 hr
Procedure: as §2

[19] = system: THP-1 (Human monocytic leukemia); test: MTT assay, IC50 in tumor cell lines; type: cell-based; settings: THP-1, 72 hr
Procedure: as §2

[20] = system: SU DHL-1 (Human large cell lymphoma); test: MTT assay, IC50 in tumor cell lines; type: cell-based; settings: SU DHL-1, 72 hr
Procedure: as §2

[21] = system: CCRF-CEM (Human acute lymphoblastic leukemia T lympoblastoid line); settings: Manfredini et al., Bioorg. Med. Chem. 2000, read-out: Cytarabine in literature (IC50); cited from earlier work
[22] = system: CCRF-SB (Human acute lymphoblastic leukemia); settings: Manfredini et al., Bioorg. Med. Chem. 2000, read-out: Cytarabine in literature (IC50); cited from earlier work
[23] = system: A2780 (Human ovarian carcinoma); settings: Ruiz Van Haperen, Cancer Res. 1994, read-out: Cytarabine in literature (IC50); cited from earlier work
[24] = system: HepG2 (Human hepatocellular carcinoma); settings: Grove et al., Cancer Res. 1995, read-out: Cytarabine in literature (IC50); cited from earlier work
[25] = system: Molt-4 cells; test: Human leukemia hollow fiber model transplanted in nude mice (Molt-4); type: in vivo; settings: 1.5 mg/mouse/day, 7 consecutive days
Procedure: as §1

- IC50 [3]: 9700 to 63000 nM
- IC50 [6]: 980 to 1160 nM
- IC50 [7]: 46.1 to 381 nM
- IC50 [8]: 590 to 770 nM
- IC50 [9]: 1900 to 3100 nM
- IC50 [10]: 1.1 to 12.3 nM
- IC50 [11]: 323 nM
- IC50 [12]: 3.1 to 25.2 nM
- IC50 [13]: 600 to 900 nM
- IC50 [14]: 1200 to 5600 nM
- IC50 [15]: 12.2 to 16.4 nM
- IC50 [16]: 49.6 to 165 nM
- IC50 [17]: 72 to 114 nM
- IC50 [18]: 26.4 nM
- IC50 [19]: 2300 to 5500 nM
- IC50 [20]: 124 to 524 nM
SMILES: Nc1ccn([C@@H]2O[C@H](CO)[C@@H](O)[C@@H]2O)c(=O)n1 [cytarabine, cytosine arabinoside]
- Inhibition of growth of CCRF-CEM cells [1]: 73.3%
- IC50 [2]: 37 ± 6.1 nM
- IC50 [4]: 40 ± 9 nM
- IC50 [5]: 29 ± 1.8 nM
- IC50 [21]: 30 nM
- IC50 [22]: 4200 nM
- IC50 [23]: 14 ± 4 nM
- IC50 [24]: 185 ± 240 nM
- Inhibition of growth of Molt-4 cells [25]: 81.1%
